Common to all, as to assay type: in vivo
One experiment has as its system Phakopsora pachyrhizi. Briefly: Test D: Asian soybean rust, preventive spray on soybean seedlings. Conditions: 50 ppm, 100 = 100% disease control, 0 = no control. An outline of the steps: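 Soybean seedlings sprayed to run-off with compound suspension (ppm, in 50/50 acetone/water with 250 ppm PEG400), inoculated next day with P. pachyrhizi spores, held 24 h saturated at 22°C then 8 days at 22°C. Visual rating 0-100% disease control relative to controls.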

The subject of experiment [1] is Blumeria graminis f. sp. tritici. Briefly: Test C: wheat powdery mildew, preventive spray on wheat seedlings. Conditions: 50 ppm, rated after 8 days, 100 = 100% disease control, 0 = no control. An outline of the steps: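 Wheat seedlings got a run-off spray of test suspension (ppm in acetone/water 50/50, 250 ppm PEG400, acetone 3% of volume), then spore-dust inoculation with wheat powdery mildew one day later. After 8 days' growth-chamber incubation at 20° C, disease control scored visually on a 0–100 scale versus untreated controls.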

The subject of a further experiment is Alternaria solani. Briefly: Test F: tomato early blight, preventive spray on tomato seedlings. The settings on record: 50 ppm, 100 = 100% disease control, 0 = no control. An outline of the steps:
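Preventive test: one day after seedlings were sprayed to run-off with ppm-level suspensions (acetone/water 50/50, 250 ppm PEG400), A. solani spore inoculation followed. Incubation was 48 h at 27° C in saturated air plus 3 days at 20° C; disease control was scored visually versus controls (100 = full control).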

The test system of the next experiment is Botrytis cinerea. Briefly: Test E: tomato Botrytis, preventive spray on tomato seedlings. The settings on record: 50 ppm, 100 = 100% disease control, 0 = no control. An outline of the steps: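 Preventive test: spore inoculation one day after run-off spraying of compound suspension (3% acetone, acetone/water 50/50, 250 ppm PEG400). Incubation 20 °C saturated humidity for 48 h, followed by 3 days at 24 °C growth chamber; disease control scored visually, 100 = full control.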

In a further experiment the test system is Septoria tritici. Briefly: Test A: wheat leaf blotch, preventive spray on wheat seedlings. Conditions: 50 ppm, 100 = 100% disease control, 0 = no control relative to controls. An outline of the steps: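 Preventive test: seedlings sprayed to run-off one day before Septoria tritici spore inoculation, with ppm doses in acetone/water containing 250 ppm PEG400. After 48 h at 24 °C in saturated air and 17 days at 20 °C, plants were scored 0–100 for disease control versus untreated controls.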

For experiment [2], the system named is Puccinia recondita f. sp. tritici. Briefly: Test B: wheat leaf rust, preventive spray on wheat seedlings. Conditions: 50 ppm, 100 = 100% disease control, 0 = no control relative to controls. An outline of the steps: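 Wheat seedlings got a run-off spray (ppm, acetone/water 50/50, 250 ppm PEG400) and one day later a spore inoculum. After 24 h at 20° C. in saturated air and 7 days at 20° C., disease was scored as % control relative to controls (100 = full control).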

Take `Cc1nn(C)c(Nc2c(F)cc(Br)cc2[N+](=O)[O-])c1-c1ccc(F)cc1F` [Compound 56]: the “Test D disease control rating (Asian soybean rust)” value in the experiment on Phakopsora pachyrhizi is on record as 65%. For the same compound, the “Test C disease control rating (wheat powdery mildew)” value in experiment [1] is 100%. In addition, in the experiment on Alternaria solani, the “Test F disease control rating (tomato early blight)” value came out at 99%. Also, in the experiment on Botrytis cinerea, the “Test E disease control rating (tomato Botrytis)” value turned out to be 99%. Further, the “Test A disease control rating (wheat leaf blotch)” value in the experiment with Septoria tritici was determined as 100%. Also, the “Test B disease control rating (wheat leaf rust)” value in experiment [2] came to 100%.

The values above are taken from patent US12398107B2, “Fungicidal nitroanilino substituted pyrazoles” (FMC Corporation, priority 2018, dated 2025).
